Here are results for four molecules from ChEMBL document CHEMBL3400016, “Isolation, synthesis and anti-hepatitis B virus evaluation of p-hydroxyacetophenone derivatives from Artemisia capillaris” (Bioorg Med Chem Lett, 2015).

For data set [1], the system named is Hepatitis B virus. Kind of data set: Antiviral activity against hepatitis B viral in human HepG2.2.15 cells assessed as surface antigen HBsAg secretion after 72 hrs by ELISA. The following applies: HepG2 2.2.15, 72 h. It is filed as functional, organism-based. (An ELISA detects its analyte on a solid surface through an enzyme-linked reagent.)
In data set [2] the test system is Hepatitis B virus. Briefly: Antiviral activity against hepatitis B viral in human HepG2.2.15 cells assessed as decrease in viral DNA replication treated for 7 days by real time PCR analysis. The format is functional, organism-based. To be noted: HepG2 2.2.15, 168 h. For orientation: Real-time PCR tracks product formation cycle by cycle.
Data set [3] is described as follows: Selectivity index, ratio of CC50 for human HepG2.2.15 cells to IC50 for decrease in hepatitis B viral DNA replication in human HepG2(2.2.15) cells. The format is functional.
Data set [4] is described as follows: Cytotoxicity against human HepG 2.2.15 cells by MTT assay. The format is cell-based, HepG2 2.2.15. (In general: Tetrazolium dyes change colour on reduction, which living cells bring about.)
For data set [5], the system named is Hepatitis B virus. Kind of data set: Antiviral activity against hepatitis B viral in human HepG2.2.15 cells assessed as […] antigen HBeAg secretion after 72 hrs by ELISA. To be noted: HepG2 2.2.15, 72 h. It is filed as functional, organism-based.
A short description of data set [6]: Selectivity index, ratio of CC50 for human HepG2.2.15 cells to IC50 for decrease in hepatitis B viral […] antigen HBeAg secretion in human HepG2(2.2.15) cells. It is filed as functional.
Data set [7] in a line: Selectivity index, ratio of CC50 for human HepG2.2.15 cells to IC50 for decrease in hepatitis B viral surface antigen HBsAg secretion in human HepG2(2.2.15) cells. The format is functional.

As usually defined, the IC50 is the concentration that inhibits the measured activity by half. A word on the CC50: it is the concentration that lowers cell viability or growth by half. High values mean better tolerance by the cells, low ones harm at low concentration. `CC(=O)c1ccc(O)cc1` [4-HYDROXYACETOPHENONE]: the figures for the IC50 in data set [1], in data set [2] and in data set [5] were 786 µM, 306 µM and 1850 µM, respectively. In addition, the figures for the “Selectivity Index” value in data set [3], in data set [6] and in data set [7] were 7.8, 1.3 and 3, respectively. The molecule also gave a cytotoxic concentration (CC50) in data set [4] of 2390 µM.
On to `CC(=O)c1ccc(O[C@@H]2O[C@H](COC(=O)/C=C/c3ccc(O)c(O)c3)[C@@H](O)[C@H](O)[C@H]2O)cc1`, for which the IC50 in data set [1] is 291 µM; in data set [2] it was 8 µM; in data set [5] it was 1280 µM. For the same molecule, the “Selectivity Index” value in data set [3] is listed as above 197.9; in data set [6], 1.2; in data set [7], 5.4. This molecule also displayed a CC50 in data set [4] of 1580 µM.
As to `CC(=O)c1ccc(OC(=O)/C=C/c2ccc(F)cc2)cc1`, the figures for the IC50 in data set [1], in data set [2] and in data set [5] were 1510 µM, above 828 µM and 1520 µM, respectively. In addition, in data set [4], the CC50 is above 3310 µM. Moreover, the “Selectivity Index” value in data set [6] and in data set [7] was above 2.2 in each case.
As to `CC(=O)c1ccc(OC(=O)/C=C/c2ccc(F)c(F)c2)cc1`, the IC50 in data set [1] is 610 µM; in data set [2], above 649 µM; in data set [5], 1710 µM. This molecule also came in with a 50% cytotoxic concentration (CC50) in data set [4] above 2600 µM. In addition, the “Selectivity Index” value in data set [6] was above 1.5; in data set [7], above 4.3.
